From US20210277003A1, “OGA INHIBITOR COMPOUNDS” (Janssen Pharmaceutica NV, priority 2018, published 2021)

Molecular target: T1, recombinant human Meningioma Expressed Antigen 5 (MGEA5), also referred to as O-GlcNAcase (OGA) (Homo sapiens, UniProt O60502)
T1 construct: Full length OGA enzyme was purchased at OnGene (cat #TP322411); purchased OnGene (so in the source)
T1 sequence (O60502 1-916): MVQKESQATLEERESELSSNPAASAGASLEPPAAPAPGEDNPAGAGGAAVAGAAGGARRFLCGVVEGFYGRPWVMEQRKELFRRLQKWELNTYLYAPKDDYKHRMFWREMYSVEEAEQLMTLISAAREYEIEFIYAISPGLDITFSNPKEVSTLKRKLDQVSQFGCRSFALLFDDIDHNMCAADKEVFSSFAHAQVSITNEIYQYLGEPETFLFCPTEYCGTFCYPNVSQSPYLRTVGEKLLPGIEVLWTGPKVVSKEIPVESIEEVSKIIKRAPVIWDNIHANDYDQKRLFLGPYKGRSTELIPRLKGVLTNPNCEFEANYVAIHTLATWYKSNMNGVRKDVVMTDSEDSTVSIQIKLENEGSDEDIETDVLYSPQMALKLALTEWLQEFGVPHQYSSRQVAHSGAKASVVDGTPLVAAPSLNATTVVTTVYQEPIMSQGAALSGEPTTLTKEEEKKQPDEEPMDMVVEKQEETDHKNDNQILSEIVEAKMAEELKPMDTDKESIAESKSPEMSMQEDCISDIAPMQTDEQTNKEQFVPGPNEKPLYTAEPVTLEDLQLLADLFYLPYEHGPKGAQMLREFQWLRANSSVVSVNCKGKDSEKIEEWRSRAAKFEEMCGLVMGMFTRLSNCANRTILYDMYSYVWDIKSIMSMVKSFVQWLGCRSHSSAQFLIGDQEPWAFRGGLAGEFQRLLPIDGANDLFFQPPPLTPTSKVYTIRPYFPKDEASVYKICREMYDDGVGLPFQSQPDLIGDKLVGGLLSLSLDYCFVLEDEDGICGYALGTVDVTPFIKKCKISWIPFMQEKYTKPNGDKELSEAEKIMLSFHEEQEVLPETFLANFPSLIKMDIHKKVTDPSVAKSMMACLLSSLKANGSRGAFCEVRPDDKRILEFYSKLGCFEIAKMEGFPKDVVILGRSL
Test: OGA biochemical assay: inhibition of hydrolysis of fluorescein mono-ß-D-N-Acetyl-Glucosamine (FM-GlcNAc), fluorescence readout
Settings: FM-GlcNAc substrate; for Emax: read-out: Enzymatic Emax (%); for IC50: read-out: Enzymatic hOGA, pIC50 (converted)
Excerpt: The assay is based on the inhibition of the hydrolysis of fluorescein mono-ß-D-N-Acetyl-Glucosamine (FM-GlcNAc) (Mariappa et al. 2015, Biochem J 470:255) by the recombinant human Meningioma Expressed Antigen 5 (MGEA5), also referred to as O-GlcNAcase (OGA). The hydrolysis FM-GlcNAc (Marker Gene technologies, cat #M1485) results in the formation of ß-D-N-glucosamineacetate and fluorescein. The fluorescence of the latter can be measured at excitation wavelength 485 nm and emission wavelength 538 nm. An increase in enzyme activity results in an increase in fluorescence signal. Full length OGA enzyme was purchased at OnGene (cat #TP322411). The enzyme was stored in 25 mM Tris.HCl, pH 7.3, 100 mM glycine, 10% glycerol at −20° C. Thiamet G and GlcNAcStatin were tested as reference compounds (Yuzwa et al. 2008 Nature Chemical Biology 4:483; Yuzwa et al. 2012 Nature Chemical Biology 8:393). The assay was performed in 200 mM Citrate/phosphate buffer supplemented with 0.005% Tween-20. 35.6 g Na2HPO4 2 H2O (Sigma, #C0759) were dissolved in 1 L water to obtain a 200 mM solution. 19.2 g citric acid (Merck, #1.06580) was dissolved in 1 L water to obtain a 100 mM solution. pH of the sodium phosphate solution was adjusted with the citric acid solution to 7.2. The buffer to stop the reaction consists of a 500 mM Carbonate buffer, pH 11.0. 734 mg FM-GlcNAc were dissolved in 5.48 mL DMSO to obtain a 250 mM solution and was stored at −20° C. OGA was used at a 2 nM concentration and FM-GlcNAc at a 100 uM final concentration. Dilutions were prepared in assay buffer. 50 nl of a compound dissolved in DMSO was dispensed on Black Proxiplate™ 384 Plus Assay plates (Perkin Elmer, #6008269) and 3 μl fl-OGA enzyme mix added subsequently. Plates were pre-incubated for 60 min at room temperature and then 2 μl FM-GlcNAc substrate mix added. […] Plates were briefly centrifuged for 1 min at 1000 rpm and incubate at room temperature for 6 h. To stop the reaction 5 μl STOP buffer were added and plates centrifuge again 1 min at 1000 rpm. Fluorescence was quantified in the Thermo Scientific Fluoroskan Ascent or the PerkinElmer EnVision with excitation wavelength 485 nm and emission wavelength 538 nm. For analysis a best-fit curve is fitted by a minimum sum of squares method. From this an IC50 value and Hill coefficient was obtained. High control (no inhibitor) and low control (saturating concentrations of standard inhibitor) were used to define the minimum and maximum values.

`Fc1cc(Cl)c(Nc2nccc3c2ccn3-c2ncco2)c(Cl)c1` [Compound 182] gave an Emax of 97.8% and an IC50 of 309 nM.

Compound `N#CCCCn1ccc2c(Nc3c(Cl)cncc3Cl)nccc21` [Compound 36] has an Emax of 100% and an IC50 of 275 nM.

With `Fc1cc(Cl)c(Nc2nccc3c2ccn3Cc2cocn2)c(Cl)c1` [Compound 121] the “Enzymatic hOGA; pIC50” value was 7.25 and the Emax was 103%.

`CCC(C)(O)Cn1ccc2c(Nc3c(Cl)cc(F)cc3Cl)nccc21` (stereo not drawn) [Compound 106] was tested, and the “Enzymatic hOGA; pIC50” value was 6.64 and the Emax was 103%.

Compound `Cc1cncc(C)c1Nc1nccc2c1ccn2CC1COC1` [Compound 29] has an Emax of 88% and an IC50 of 1620 nM.

`Cc1ccc(-n2ccc3c(Nc4c(Cl)cccc4Cl)nccc32)nc1` [Compound 165] was tested, and the Emax was 101% and the IC50 was 38 nM.

With `Cc1ccnc(C)c1Nc1nccc2c1ccn2CCC1CCO1` (stereo not drawn) [Compound 21] the “Enzymatic hOGA; pIC50” value was 6.61 and the Emax was 96%.

`Cc1cncc(C(C)C)c1Nc1nccc2c1ccn2CC1COC1` [Compound 32] was tested, and the Emax was 98% and the IC50 was 234 nM.

In the case of `Fc1cnc(-n2ccc3c(Nc4c(Cl)cccc4Cl)nccc32)nc1` [Compound 164], the Emax is reported as 101% and the IC50 is reported as 37.2 nM.

For `Fc1cc(Cl)c(Nc2nccc3c2ccn3Cc2cnco2)c(Cl)c1` [Compound 142], the “Enzymatic hOGA; pIC50” value was 6.56 and the Emax was 99.2%.

For `CCC(O)Cn1ccc2c(Nc3c(C)ccnc3C)nccc21` (stereo not drawn) [Compound 93], the “Enzymatic hOGA; pIC50” value was 7.44 and the Emax was 101%.

For `Cc1ccnc(C)c1Nc1nccc2c1ccn2CCN1CC(F)(F)C1` [Compound 103], the “Enzymatic hOGA; pIC50” value was 6.12 and the Emax was 99.7%.

With `Cc1ccnc(C)c1Nc1nccc2c1ccn2CC1CC1(F)F` (stereo not drawn) [Compound 2] the Emax was 99% and the IC50 was 91.2 nM.

In the case of `Clc1cccc(Cl)c1Nc1nccc2c1ccn2Cc1ncc[nH]1` [Compound 191], the Emax is reported as 98.8% and the IC50 is reported as 229 nM.

With `CCCC(C)n1ccc2c(Nc3c(C)cncc3C)nccc21` (stereo not drawn) [Compound 33] the Emax was 99% and the IC50 was 309 nM.

In the case of `CCn1ccc2c(Nc3c(C)cc(F)cc3C)nccc21` [Compound 37], the Emax is reported as 101% and the IC50 is reported as 251 nM.

`Fc1cc(Cl)c(Nc2nccc3c2ccn3-c2c[nH]cn2)c(Cl)c1` [Compound 190] was tested, and the Emax was 96.3% and the IC50 was 562 nM.

In the case of `N#Cc1cnc(-n2ccc3c(Nc4c(Cl)cc(F)cc4Cl)nccc32)[nH]1` [Compound 181], the Emax is reported as 92.7% and the IC50 is reported as 794 nM.

For `Cc1ccnc(C)c1Nc1nccc2c1ccn2CC1(C)COC1` [Compound 22], the “Enzymatic hOGA; pIC50” value was 6.54 and the Emax was 99%.

In the case of `CCCCn1ccc2c(Nc3c(C)cnc4c3OCCO4)nccc21` [Compound 20], the “Enzymatic hOGA; pIC50” value is reported as 7.4 and the Emax is reported as 102%.

`Clc1cccc(Cl)c1Nc1nccc2c1ccn2CCC1COC1` [Compound 98] was tested, and the “Enzymatic hOGA; pIC50” value was 6.54 and the Emax was 98%.

With `CCC(C)(F)Cn1ccc2c(Nc3c(Cl)cc(F)cc3Cl)nccc21` (stereo not drawn) [Compound 111] the “Enzymatic hOGA; pIC50” value was 7.62 and the Emax was 102%.

With `Cn1ccnc1Cn1ccc2c(Nc3c(Cl)cccc3Cl)nccc21` [Compound 168] the Emax was 98.1% and the IC50 was 562 nM.

In the case of `CCC(Cn1ccc2c(Nc3c(Cl)cc(F)cc3Cl)nccc21)OC` (stereo not drawn) [Compound 104], the “Enzymatic hOGA; pIC50” value is reported as 6.14 and the Emax is reported as 96.9%.

For `CCC(C)(F)Cn1ccc2c(Nc3c(C)ccnc3C)nccc21` (stereo not drawn) [Compound 108], the “Enzymatic hOGA; pIC50” value was 7.32 and the Emax was 102%.

`CN(C)S(=O)(=O)Cn1ccc2c(Nc3c(Cl)cncc3Cl)nccc21` [Compound 3] was tested, and the Emax was 92% and the IC50 was 933 nM.

`CCCCn1ccc2c(Nc3c(C)cnnc3C)nccc21` [Compound 17] was tested, and the “Enzymatic hOGA; pIC50” value was 6.94 and the Emax was 102%.

`Cc1ncnc(C(C)C)c1Nc1nccc2c1ccn2CCC(F)(F)F` [Compound 192] showed an Emax of 98.3% and an IC50 of 182 nM.

`Cc1cnc(Cn2ccc3c(Nc4c(Cl)cc(F)cc4Cl)nccc32)o1` [Compound 143] was tested, and the “Enzymatic hOGA; pIC50” value was 7.41 and the Emax was 100%.

`CCCCn1ccc2c(Nc3c(C)cc(N(C)C(C)=O)cc3C)nccc21` [Compound 102] was tested, and the Emax was 99% and the IC50 was 229 nM.
